Data: patent US11331369B2, “Endoparasitic depsipeptides” (Zoetis Services LLC, priority 2017, dated 2022)

What was measured:
[1] = test system: third stage larvae of Haemonchus contortus; experiment: Haemonchus contortus L3 (HcL3) Assay; format: cell-based; details: 96 h, read-out: HcL3 Minimum Effective Dose (MED)
[2] = test system: microfilariae of Dirofilaria immitis; experiment: Dirofilaria immitis, Microfilaria (DiMF) In vitro Assay; format: cell-based; details: 72 h, read-out: DiMF Minimum Effective Dose (MED), approximately 72 hours incubation, microfilariae assessed for survival or paralysis

SMILES	minimal effective concentration [1] [µM]	minimal effective concentration [2] [µM]
CC(C)C[C@H]1C(=O)O[C@H](Cc2ccc(Cn3cc(O)cn3)cc2)C(=O)N(C)[C@@H](CC(C)C)C(=O)O[C@H](C)C(=O)N(C)[C@@H](CC(C)C)C(=O)O[C@H](Cc2ccc(Cn3cc(O)cn3)cc2)C(=O)N(C)[C@@H](CC(C)C)C(=O)O[C@H](C)C(=O)N1C [Example 1b-18, (3S,6R,9S,12R,15S,18R,21S,24R)-6,18-bis(4-((4-hydroxy-1H-pyrazol-1-yl)methyl)benzyl)-3,9,15,21-tetraisobutyl-4,10,12,16,22,24-hexamethyl-1,7,13,19-tetraoxa-4,10,16,22-tetraazacyclotetracosan-2,5,8,11,14,17,20,23-octaone]	≤ 1	–
CC(C)C[C@H]1C(=O)O[C@H](Cc2ccc(Cn3cc(N4CCOCC4)cn3)cc2)C(=O)N(C)[C@@H](CC(C)C)C(=O)O[C@H](C)C(=O)N(C)[C@@H](CC(C)C)C(=O)O[C@H](Cc2ccc(Cn3cc(N4CCOCC4)cn3)cc2)C(=O)N(C)[C@@H](CC(C)C)C(=O)O[C@H](C)C(=O)N1C [Example 1b-179, (3S,6R,9S,12R,15S,18R,21S,24R)-3,9,15,21-tetraisobutyl-4,6,10,16,18,22-hexamethyl-12,24-bis(4-((4-morpholino-1H-pyrazol-1-yl)methyl)benzyl)-1,7,13,19-tetraoxa-4,10,16,22-tetraazacyclotetracosan-2,5,8,11,14,17,20,23-octaone]	1 to 10	–
CC(C)C[C@H]1C(=O)O[C@H](Cc2ccc(CN3CCSc4ncccc43)cc2)C(=O)N(C)[C@@H](CC(C)C)C(=O)O[C@H](C)C(=O)N(C)[C@@H](CC(C)C)C(=O)O[C@H](Cc2ccccc2)C(=O)N(C)[C@@H](CC(C)C)C(=O)O[C@H](C)C(=O)N1C [Example 10-35, (3S,6R,9S,12R,15S,18R,21S,24R)-6-benzyl-18-[[4-(2,3-dihydropyrido[2,3-b][1,4]thiazin-1-ylmethyl)phenyl]methyl]-3,9,15,21-tetraisobutyl-4,10,12,16,22,24-hexamethyl-1,7,13,19-tetraoxa-4, 10,16,22-tetrazacyclotetracosane-2,5,8,11,14,17,20,23-octaone]	–	0.01 to 0.1
CC(C)C[C@H]1C(=O)O[C@H](Cc2ccc(CN3CCOc4cccnc43)cc2)C(=O)N(C)[C@@H](CC(C)C)C(=O)O[C@H](C)C(=O)N(C)[C@@H](CC(C)C)C(=O)O[C@H](Cc2ccccc2)C(=O)N(C)[C@@H](CC(C)C)C(=O)O[C@H](C)C(=O)N1C [Example 10-37, (3S,6R,9S,12R,15S,18R,21S,24R)-6-benzyl-18-[[4-(2,3-dihydropyrido[3,2-b][1,4]oxazin-4-ylmethyl)phenyl]methyl]-3,9,15,21-tetraisobutyl-4,10,12,16,22,24-hexamethyl-1,7,13,19-tetraoxa-4, 10,16,22-tetrazacyclotetracosane-2,5,8,11,14,17,20,23-octaone]	–	0.001 to 0.01
CC(C)C[C@H]1C(=O)O[C@H](Cc2ccc(CN3CCSc4ccccc43)cc2)C(=O)N(C)[C@@H](CC(C)C)C(=O)O[C@H](C)C(=O)N(C)[C@@H](CC(C)C)C(=O)O[C@H](Cc2ccccc2)C(=O)N(C)[C@@H](CC(C)C)C(=O)O[C@H](C)C(=O)N1C [Example 10-41, (3S,6R,9S,12R,15S,18R,21S,24R)-6-benzyl-18-(4-((2,3-dihydro-4H-benzo[b][1,4]thiazin-4-yl)methyl)benzyl)-3,9,15,21-tetraisobutyl-4,10,12,16,22,24-hexamethyl-1,7,13,19-tetraoxa-4,10,16,22-tetraazacyclotetracosan-2,5,8,11,14,17,20,23-octaone]	–	0.01 to 0.1
